The text below walks through data of patent publication US10357493B2, “Metalloenzyme inhibitor compounds” (Selenity Therapeutics (Bermuda), Ltd., priority 2017, dated 2019).

One assay has as its target HDAC1 (Homo sapiens (Human), UniProt Q13547). The assay is described as follows: HDAC1 enzymatic assay. The following applies: read-out: Human HDAC1 IC50. It is filed as biochemical. The procedure: (§1) All enzymatic reactions were conducted in duplicate at room temperature for 17 hours in a 50 μl mixture containing HDAC assay buffer (50 mM Tris-HCl, pH 7.4, 137 mM NaCl, 2.7 mM KCl, 0.05% Tween 20, 5 μg BSA), an HDAC substrate, an HDAC enzyme, and a test compound. Compound dilution was prepared ten-fold higher than the final concentration of the compounds with 10% DMSO in HDAC assay buffer and 5 μl of the dilution was added to a 50 μl reaction so that the final concentration of DMSO is 1% in all of reactions. After enzymatic reactions, 50 μl of HDAC Developer was added to each well and the plate was incubated at room temperature for an additional 20 minutes. Fluorescence intensity was measured at an excitation of 360 nm and an emission of 460 nm using a Tecan Infinite M1000 or Biotek Synergy microplate reader.
(§2) The fluorescent intensity data were analyzed using the computer software, Graphpad Prism. In the absence of the compound, the fluorescent intensity (Ft) in each data set was defined as 100% activity. In the absence of HDAC, the fluorescent intensity (Fb) in each data set was defined as 0% activity. The percent activity in the presence of each compound was calculated according to the following equation: % activity=(F−Fb)/(Ft−Fb), where F=the fluorescent intensity in the presence of the compound.
(§3) The values of % activity versus a series of compound concentrations were then plotted using non-linear regression analysis of Sigmoidal dose-response curve generated with the equation Y=B+(T−B)/1+10((Log EC50−X)×Hill Slope), where Y=percent activity, B=minimum percent activity, T=maximum percent activity, X=logarithm of compound and Hill Slope=slope factor or Hill coefficient. The IC50 value was determined by the concentration causing a half-maximal percent activity.
(§4) HDAC1 enzymatic assays contained 0.5 ng HDAC1 and 10 uM of HDAC substrate. HDAC2 enzymatic assays contained 0.5 ng HDAC2 and 10 uM of HDAC substrate. HDAC3 enzymatic assays contained 0.4 ng HDAC3/NCOR2 and 10 uM of HDAC substrate. HDAC4 enzymatic assays contained 0.02 ng HDAC4 and 2 uM of HDAC substrate. HDAC5 enzymatic assays contained 0.5 ng HDAC5 and 2 uM of HDAC substrate. HDAC6 enzymatic assays contained 2 ng HDAC6 and 10 uM of HDAC substrate. HDAC7 enzymatic assays contained 0.05 ng HDAC7 and 2 uM of HDAC substrate. HDAC8 enzymatic assays contained 5 ng HDAC8 and 2 uM of HDAC substrate. HDAC9 enzymatic assays contained 1 ng HDAC9 and 2 uM of HDAC substrate. HDAC10 enzymatic assays contained 75 ng HDAC10 and 10 uM of HDAC substrate. HDAC11 enzymatic assays contained 5 ng HDAC11 and 2 uM of HDAC substrate.

The target in another assay is HDAC6 (Homo sapiens (Human), UniProt Q9UBN7). As to the kind of experiment: HDAC6 enzymatic assay. It is filed as biochemical. The following applies: read-out: Human HDAC6 IC50. How it is done: as §1, §2, §3, §4
Chain of HDAC6 (Q9UBN7 whole entry): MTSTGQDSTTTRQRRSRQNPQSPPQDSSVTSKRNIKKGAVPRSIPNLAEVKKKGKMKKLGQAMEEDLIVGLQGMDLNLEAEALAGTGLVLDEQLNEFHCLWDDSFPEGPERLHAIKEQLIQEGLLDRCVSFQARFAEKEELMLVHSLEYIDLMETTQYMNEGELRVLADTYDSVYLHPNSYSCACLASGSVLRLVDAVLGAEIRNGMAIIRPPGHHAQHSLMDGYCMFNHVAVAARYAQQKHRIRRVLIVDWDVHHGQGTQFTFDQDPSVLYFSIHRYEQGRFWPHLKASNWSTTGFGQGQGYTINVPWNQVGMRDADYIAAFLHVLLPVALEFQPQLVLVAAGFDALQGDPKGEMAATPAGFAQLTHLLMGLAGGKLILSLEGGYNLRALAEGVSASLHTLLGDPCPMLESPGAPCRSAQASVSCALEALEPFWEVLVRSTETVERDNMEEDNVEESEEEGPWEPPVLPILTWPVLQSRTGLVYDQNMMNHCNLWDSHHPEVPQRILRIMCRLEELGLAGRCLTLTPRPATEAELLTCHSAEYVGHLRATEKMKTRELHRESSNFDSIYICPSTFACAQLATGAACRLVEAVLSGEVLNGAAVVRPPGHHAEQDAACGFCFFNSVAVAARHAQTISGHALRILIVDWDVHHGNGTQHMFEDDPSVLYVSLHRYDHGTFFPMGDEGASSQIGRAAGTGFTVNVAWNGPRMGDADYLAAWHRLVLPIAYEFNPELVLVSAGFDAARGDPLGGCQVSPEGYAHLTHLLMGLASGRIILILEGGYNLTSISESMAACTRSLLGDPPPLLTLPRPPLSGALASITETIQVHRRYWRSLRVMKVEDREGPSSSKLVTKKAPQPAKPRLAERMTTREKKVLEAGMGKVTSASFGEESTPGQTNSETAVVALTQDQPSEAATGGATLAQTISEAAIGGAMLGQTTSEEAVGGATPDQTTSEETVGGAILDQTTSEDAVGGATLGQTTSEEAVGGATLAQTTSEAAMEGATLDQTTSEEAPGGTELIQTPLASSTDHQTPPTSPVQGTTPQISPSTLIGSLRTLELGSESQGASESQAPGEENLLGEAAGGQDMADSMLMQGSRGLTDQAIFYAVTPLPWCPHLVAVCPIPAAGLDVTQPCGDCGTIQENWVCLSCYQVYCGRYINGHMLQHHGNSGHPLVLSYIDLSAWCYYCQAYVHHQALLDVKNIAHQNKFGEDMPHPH

Chain of HDAC1 (Q13547 whole entry): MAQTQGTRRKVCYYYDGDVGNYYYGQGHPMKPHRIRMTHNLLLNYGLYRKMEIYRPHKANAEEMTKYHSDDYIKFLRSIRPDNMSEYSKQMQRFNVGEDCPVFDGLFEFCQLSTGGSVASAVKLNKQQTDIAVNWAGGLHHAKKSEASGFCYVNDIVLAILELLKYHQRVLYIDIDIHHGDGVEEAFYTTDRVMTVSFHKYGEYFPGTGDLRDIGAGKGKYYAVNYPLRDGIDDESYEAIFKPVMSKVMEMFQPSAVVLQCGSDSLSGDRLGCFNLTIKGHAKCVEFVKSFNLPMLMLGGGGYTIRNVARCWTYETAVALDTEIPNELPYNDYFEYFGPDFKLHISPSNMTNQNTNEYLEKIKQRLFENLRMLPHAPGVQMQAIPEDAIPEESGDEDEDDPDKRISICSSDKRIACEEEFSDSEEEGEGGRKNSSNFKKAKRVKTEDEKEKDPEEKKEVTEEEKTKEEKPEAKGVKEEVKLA

For `O=S(=O)(C1CC1)N(CC(Nc1ncc(-c2nnc(C(F)F)o2)cn1)c1ccc(F)cc1)CC(F)(F)F` (single isomer, unassigned) [165(+), N-(2-((5-(5-(difluoromethyl)-1,3,4-oxadiazol-2-yl)pyrimidin-2-yl)amino)-2-(4-fluorophenyl)ethyl)-N-(2,2,2-trifluoroethyl)cyclopropanesulfonamide], the IC50 at HDAC1 is over 30000 nM; on HDAC6, 110 nM.
Taken in the same sequence, the figures for `O=S(=O)(C1CC1)N(CC(Nc1ncc(-c2nnc(C(F)F)o2)cn1)c1ccc(F)cc1)CC(F)(F)F` (single isomer, unassigned) [165(−), N-(2-((5-(5-(difluoromethyl)-1,3,4-oxadiazol-2-yl)pyrimidin-2-yl)amino)-2-(4-fluorophenyl)ethyl)-N-(2,2,2-trifluoroethyl)cyclopropanesulfonamide] were over 30000 nM and 160 nM.
The like results for `CC(=O)N(C)CC(Nc1ncc(-c2nnc(C(F)F)o2)cn1)c1ccc(F)cc1` (single isomer, unassigned) [166(+), N-(2-((5-(5-(difluoromethyl)-1,3,4-oxadiazol-2-yl)pyrimidin-2-yl)amino)-2-(4-fluorophenyl)ethyl)-N-methylacetamide] were, in that order, over 30000 nM and 93 nM.
Taken in the same sequence, the figures for `CC(=O)N(C)CC(Nc1ncc(-c2nnc(C(F)F)o2)cn1)c1ccc(F)cc1` (single isomer, unassigned) [166(−), N-(2-((5-(5-(difluoromethyl)-1,3,4-oxadiazol-2-yl)pyrimidin-2-yl)amino)-2-(4-fluorophenyl)ethyl)-N-methylacetamide] were over 30000 nM and 360 nM.
In the case of `CC(=O)N(CC(Nc1ncc(-c2nnc(C(F)F)o2)cn1)c1ccc(F)cc1)CC(F)(F)F` (single isomer, unassigned) [167(+), N-(2-((5-(5-(difluoromethyl)-1,3,4-oxadiazol-2-yl)pyrimidin-2-yl)amino)-2-(4-fluorophenyl)ethyl)-N-(2,2,2-trifluoroethyl)acetamide], the figures for the IC50 at HDAC1 and on HDAC6 were over 30000 nM and 110 nM, respectively.
In the case of `CC(=O)N(CC(Nc1ncc(-c2nnc(C(F)F)o2)cn1)c1ccc(F)cc1)CC(F)(F)F` (single isomer, unassigned) [167(−), N-(2-((5-(5-(difluoromethyl)-1,3,4-oxadiazol-2-yl)pyrimidin-2-yl)amino)-2-(4-fluorophenyl)ethyl)-N-(2,2,2-trifluoroethyl)acetamide], the IC50 on HDAC1 was over 30000 nM; at HDAC6, 690 nM.
The like results for `O=C(NCC(Nc1ncc(-c2nnc(C(F)F)o2)cn1)c1ccc(F)cc1)C1CC1` (single isomer, unassigned) [168(−), N-(2-((5-(5-(difluoromethyl)-1,3,4-oxadiazol-2-yl)pyrimidin-2-yl)amino)-2-(4-fluorophenyl)ethyl)cyclopropanecarboxamide] were, in that order, over 30000 nM and 750 nM.
Regarding `CN(CC(Nc1ncc(-c2nnc(C(F)F)o2)cn1)c1ccc(F)cc1)C(=O)C1CC1` (single isomer, unassigned) [169(+), N-(2-((5-(5-(difluoromethyl)-1,3,4-oxadiazol-2-yl)pyrimidin-2-yl)amino)-2-(4-fluorophenyl)ethyl)-N-methylcyclopropanecarboxamide], the IC50 is over 30000 nM on HDAC1 and 77 nM on HDAC6.
Regarding `CN(CC(Nc1ncc(-c2nnc(C(F)F)o2)cn1)c1ccc(F)cc1)C(=O)C1CC1` (single isomer, unassigned) [169(−), N-(2-((5-(5-(difluoromethyl)-1,3,4-oxadiazol-2-yl)pyrimidin-2-yl)amino)-2-(4-fluorophenyl)ethyl)-N-methylcyclopropanecarboxamide], the IC50 on HDAC1 is over 30000 nM; on HDAC6, 1100 nM.
For `O=C(C1CC1)N(CC(Nc1ncc(-c2nnc(C(F)F)o2)cn1)c1ccc(F)cc1)CC(F)(F)F` (single isomer, unassigned) [170(+), N-(2-((5-(5-(difluoromethyl)-1,3,4-oxadiazol-2-yl)pyrimidin-2-yl)amino)-2-(4-fluorophenyl)ethyl)-N-(2,2,2-trifluoroethyl)cyclopropanecarboxamide], the IC50 at HDAC1 was over 30000 nM; on HDAC6, 160 nM.
In the case of `O=C(C1CC1)N(CC(Nc1ncc(-c2nnc(C(F)F)o2)cn1)c1ccc(F)cc1)CC(F)(F)F` (single isomer, unassigned) [170(−), N-(2-((5-(5-(difluoromethyl)-1,3,4-oxadiazol-2-yl)pyrimidin-2-yl)amino)-2-(4-fluorophenyl)ethyl)-N-(2,2,2-trifluoroethyl)cyclopropanecarboxamide], the results for the IC50 on HDAC1 and at HDAC6 were over 30000 nM and 1000 nM, respectively.
In the case of `CS(=O)(=O)NCC(Nc1ncc(-c2nnc(C(F)F)o2)cn1)c1ccc(F)c(F)c1` (single isomer, unassigned) [171(−), N-(2-((5-(5-(difluoromethyl)-1,3,4-oxadiazol-2-yl)pyrimidin-2-yl)amino)-2-(3,4-difluorophenyl)ethyl)methanesulfonamide], the IC50 was over 30000 nM at HDAC1 and 590 nM on HDAC6.
Turning to `CS(=O)(=O)N(CC(Nc1ncc(-c2nnc(C(F)F)o2)cn1)c1ccc(F)c(F)c1)CC(F)(F)F` (single isomer, unassigned) [172(A), N-(2-((5-(5-(difluoromethyl)-1,3,4-oxadiazol-2-yl)pyrimidin-2-yl)amino)-2-(3,4-difluorophenyl)ethyl)-N-(2,2,2-trifluoroethyl)methanesulfonamide], the results for the IC50 on HDAC1 and at HDAC6 were over 30000 nM and 320 nM, respectively.
Regarding `CS(=O)(=O)N(CC(Nc1ncc(-c2nnc(C(F)F)o2)cn1)c1ccc(F)c(F)c1)CC(F)(F)F` (single isomer, unassigned) [172(B), N-(2-((5-(5-(difluoromethyl)-1,3,4-oxadiazol-2-yl)pyrimidin-2-yl)amino)-2-(3,4-difluorophenyl)ethyl)-N-(2,2,2-trifluoroethyl)methanesulfonamide], the IC50 on HDAC1 is over 30000 nM; on HDAC6, 86 nM.
Consider `CS(=O)(=O)NCC(Nc1ncc(-c2nnc(C(F)F)o2)cn1)c1ccc(Cl)cc1` (single isomer, unassigned) [173(−), N-(2-(4-chlorophenyl)-2-((5-(5-(difluoromethyl)-1,3,4-oxadiazol-2-yl)pyrimidin-2-yl)amino)ethyl)methanesulfonamide], for which the IC50 at HDAC1 was over 30000 nM; on HDAC6, 490 nM.
With `CS(=O)(=O)N(CC(Nc1ncc(-c2nnc(C(F)F)o2)cn1)c1ccc(Cl)cc1)CC(F)(F)F` (single isomer, unassigned) [174(+), N-(2-(4-chlorophenyl)-2-((5-(5-(difluoromethyl)-1,3,4-oxadiazol-2-yl)pyrimidin-2-yl)amino)ethyl)-N-(2,2,2-trifluoroethyl)methanesulfonamide], the values for the half-maximal inhibitory concentration (IC50) on HDAC1 and on HDAC6 were over 30000 nM and 170 nM, respectively.
The like results for `CS(=O)(=O)N(CC(Nc1ncc(-c2nnc(C(F)F)o2)cn1)c1ccc(Cl)cc1)CC(F)(F)F` (single isomer, unassigned) [174(−), N-(2-(4-chlorophenyl)-2-((5-(5-(difluoromethyl)-1,3,4-oxadiazol-2-yl)pyrimidin-2-yl)amino)ethyl)-N-(2,2,2-trifluoroethyl)methanesulfonamide] were, in that order, over 30000 nM and 110 nM.
The like results for `Fc1ccc(C(Cn2cnc(C(F)(F)F)c2)Nc2ncc(-c3nnc(C(F)F)o3)cn2)cc1` (single isomer, unassigned) [175(+), 5-(5-(difluoromethyl)-1,3,4-oxadiazol-2-yl)-N-(1-(4-fluorophenyl)-2-(4-(trifluoromethyl)-1H-imidazol-1-yl)ethyl)pyrimidin-2-amine] were, in that order, over 30000 nM and 160 nM.
Taken in the same sequence, the figures for `Fc1ccc(C(Cn2cnc(C(F)(F)F)c2)Nc2ncc(-c3nnc(C(F)F)o3)cn2)cc1` (single isomer, unassigned) [175(−), 5-(5-(difluoromethyl)-1,3,4-oxadiazol-2-yl)-N-(1-(4-fluorophenyl)-2-(4-(trifluoromethyl)-1H-imidazol-1-yl)ethyl)pyrimidin-2-amine] were over 30000 nM and 1500 nM.

One may read the IC50 as the concentration that gives 50% inhibition.
